Data: ChEMBL document CHEMBL5385881, “Design, synthesis, and discovery of Eudistomin Y derivatives as lysosome-targeted antiproliferation agents” (Eur J Med Chem, 2023)

Key:
MDA-MB-231 = experiment: Cytotoxicity against human MDA-MB-231 cells assessed as cell inhibition measured after 72 hrs by MTT assay; format: functional, cell-based; settings: MDA-MB-231, 72 h
A549 = experiment: Cytotoxicity against human A549 cells assessed as cell inhibition measured after 72 hrs by MTT assay; format: functional, cell-based; settings: A549, 72 h
SGC-7901 = experiment: Cytotoxicity against human SGC-7901 cells assessed as cell inhibition measured after 72 hrs by MTT assay; format: functional, cell-based; settings: SGC-7901, 72 h
LS180 = experiment: Cytotoxicity against human LS180 cells assessed as cell inhibition measured after 72 hrs by MTT assay; format: functional, cell-based; settings: LS180, 72 h
HepG2 = experiment: Cytotoxicity against human HepG2 cells assessed as cell inhibition measured after 72 hrs by MTT assay; format: functional, cell-based; settings: HepG2, 72 h
[1] = Drug uptake in human MDA-MB-231 cells assessed as accumulation by measuring lysosome-specific fluorescent signals in presence of excess H1 at 1 uM incubated for 1 hrs by confocal laser-scanning microscopic analysis; format: ADME, cell-based; settings: mda-mb-231, 1 h

Work on `O=C(c1ccc(O)cc1)c1nccc2c1[nH]c1ccccc12` [EUDISTOMIN Y1] yielded an IC50 (MDA-MB-231) of 129 µM, an IC50 (A549) of 71.9 µM and an IC50 (SGC-7901) of 119 µM. The IC50 (LS180) was 89.8 µM and the IC50 (HepG2) was 126 µM.

For `O=C(c1ccccc1)c1nccc2c3ccccc3n(Cc3cccc(F)c3)c12`, the IC50 (MDA-MB-231) was 33.5 µM, the IC50 (A549) was 31.6 µM and the IC50 (SGC-7901) was 28.1 µM. For the same compound, the IC50 (LS180) was 20 µM, the Drug uptake [1] was “Not Active” and the IC50 (HepG2) was 28.4 µM.
